Assay results taken from PMC3651166, “Differential Cytotoxic Activity of a Novel Palladium-Based Compound on Prostate Cell Lines, Primary Prostate Epithelial Cells and Prostate Stem Cells” (PLoS ONE, 2013).
Like-named read-outs stand apart in the source and are kept apart here.

What was measured:
Format in all cases: cell-based, human
BPH-1 = test: MTS assay, anti-growth effect on cell line
Protocol: (§1) In this study, six different prostate cell lines (PNT1A, PNT2-C2, BPH-1, PC-3, LNCaP, P4E6) were used (Table 1). These cell lines encompass the spectrum of cellular differentiation status (basal, intermediate and luminal phenotypes), as well as the spectrum of normal, early cancer and late cancer. BPH-1 is derived from benign prostate hyperplasia (BPH), while PNT2-C2 and PNT1A are derived from normal prostate. PC-3, LNCaP and P4E6 are cancer cell lines. LNCaP, PNT2-C2, PNT1A were grown in RPMI medium with 10% FCS (foetal calf serum); PC-3 was grown in Ham’s F-12 medium with 7% FCS; BPH-1 was grown in RPMI medium with 5% FCS; P4E6 was grown in KSFM (Keratinocyte serum free medium) with 2% FCS. No antibiotics were used in any media. The cells were incubated at 37°C in a humidified atmosphere containing 5% CO2.
(§2) This assay was performed for the initial screening of the effect of the Pd complex on the cell lines and the whole cell population of primary cultures. The CellTiter 96® Aqueous One Solution Cell Proliferation Assay kit (G3580, Promega, Madison, WI, USA) was used and the manufacturer’s instructions were followed. Briefly, after treating cells that were seeded at a density of 5,000 cells per well in a 96-well plate in triplicate for a desired period (24 h, 48 h, 72 h), 20 µL of reagent was added to each well. Following 2.5 h incubation at 37°C, the absorbance was read at 485 nm using a plate reader (PolarStar Optima, BMG Labtech, UK). Percent viability was calculated using the formula (% Viability = [(Sample Absorbance/Control Absorbance)]×100.
(§3) MTS and ATP assays were performed in triplicate and data presented as the mean +/− standard deviation. IC50 values (Table 3 and Table 4) were calculated from graphs of transformed data following application of the nonlinear regression (curve fit) that represents the log(inhibitor) ‘v’ normalized response (GraphPad Prism software) (Supplementary Figures S1 and S2). For significance calculations, the Wilcoxon rank sum test was used (Sigmaplot). Flow cytometry analysis was carried out in triplicate and results are presented as an average with error bars indicating the standard error.

LNCaP = test: MTS assay, anti-growth effect on cell line
Protocol: as §1, §2, §3

P4E6 = test: MTS assay, anti-growth effect on cell line
Protocol: as §1, §2, §3

PC-3 = test: MTS assay, anti-growth effect on cell line
Protocol: as §1, §2, §3

PNT1A = test: MTS assay, anti-growth effect on cell line
Protocol: as §1, §2, §3

PNT2-C2 = test: MTS assay, anti-growth effect on cell line
Protocol: as §1, §2, §3

PCa Primary cells (Gl7) = test: MTS assay, primary cultures from prostate carcinoma Gleason 6/7
Text: (§4) Primary prostate epithelial cells were isolated from human tissue samples. The samples were collected with ethical permission from York District Hospital (York, UK) and Castle Hill Hospital (Cottingham, UK). Benign prostatic hyperplasia (BPH) and prostate cancer samples were obtained from TURP (transurethral resection of the prostate), radical prostatectomy (laparoscopic and open) and cystectomy operations. All patients gave written consent for their tissue to be used for research and all patient samples were anonymised. Permission was approved by the Local Research Ethical Committees, associated with York District Hospital and Castle Hill Hospital. Permission was administered by the Yorkshire and Humber Research Ethics Committee.
(§5) Prostate epithelial cells were cultured as previously described in stem cell media (SCM) consisting of keratinocyte serum-free media (KSFM) with bovine pituitary extract (BPE) and epidermal growth factor (EGF), glutamine, stem cell factor (SCF), granulocyte macrophage colony stimulating factor (GM-CSF), leukaemia inhibitory factor (LIF) and cholera toxin. Cells were grown with STO feeder cells (irradiated at 60 Gy) on collagen I-coated plates.
as §2, §3

[1] = test system: PCa Primary cells (Gl8/9); test: MTS assay, primary cultures from prostate carcinoma Gleason 8/9
Text: as §4, §5, §2, §3

[2] = test system: PNT1A, PNT2-C2, BPH-1, PC-3, LNCaP, P4E6; test: MTS assay, panel of six prostate cell lines; details: 100 µM, 72 h
Protocol: as §1
as §2, with “Briefly, after treating cells that were seeded at a density of 5,000 cells per well in a 96-well plate in triplicate for a desired period (24 h, 48 h, 72 h), 20 µL of reagent was added to each well.” left out, “Absorbance)]×100. […]” for “Absorbance)]×100.”

cleaved caspase-3 = test: Western blotting for apoptosis, cell lines
Protocol: (§6) Following drug treatment, cell lysates were harvested using Cytobuster Protein Extraction Reagent (71009, EMD Millipore, Darmstadt, Germany) with protease inhibitors (cOmplete, EDTA-free Protease Inhibitor Cocktail Tablets, Roche Applied Science, UK). 20 µg of protein extract were loaded on 12% SDS-PAGE gels and wet-transferred to a PVDF membrane. Antibodies used include: monoclonal anti-β-actin 1∶5000 (A5316, Sigma-Aldrich), anti-LC3B 1∶3000 (Ab51520, abcam), cleaved caspase-3 (Asp175) 1∶1000 (9661S, Cell Signaling Technology) and secondary antibodies were Rabbit anti-mouse-HRP 1∶10000 (P0260, Dako) and anti-rabbit IgG HRP-linked 1∶5000 (Cell Signaling Technology Inc. 7074S). Kaleidoscope protein marker was run on each gel (161-0324, Bio-Rad).

LC3-II = test: Western blotting for autophagy, cell lines
Protocol: as §6

## [PdCl(terpy)](sac)⋅2 H2O [Pd complex]
BPH-1; BPH-1, 24 h
  IC50: 17.6 µM
BPH-1; BPH-1, 48 h
  IC50: 1.88 µM
BPH-1; BPH-1, 72 h
  IC50: 0.14 µM
LNCaP; 24 h
  IC50: 106 µM
LNCaP; 48 h
  IC50: 11.9 µM
LNCaP; 72 h
  IC50: 3.43 µM
P4E6; P4E6, 24 h
  IC50: 21.8 µM
P4E6; P4E6, 48 h
  IC50: 9.66 µM
P4E6; P4E6, 72 h
  IC50: 4.37 µM
PC-3; PC-3, 24 h
  IC50: 98.9 µM
PC-3; PC-3, 48 h
  IC50: 49.1 µM
PC-3; PC-3, 72 h
  IC50: 26.8 µM
PNT1A; 24 h
  IC50: 28 µM
PNT1A; 48 h
  IC50: 1.26 µM
PNT1A; 72 h
  IC50: 0.106 µM
PNT2-C2; PNT2-C2, 24 h
  IC50: 1.73 µM
PNT2-C2; PNT2-C2, 48 h
  IC50: 17.2 µM
PNT2-C2; PNT2-C2, 72 h
  IC50: 0.903 µM
PCa Primary cells (Gl7); PCa primary cells (Gl7), sample 06211rb, 72 h, read-out: IC50
  IC50: 11.1 µM
PCa Primary cells (Gl7); PCa primary cells (Gl7), sample 06411lb, 72 h, read-out: IC50
  IC50: 5.2 µM
PCa Primary cells (Gl7); PCa primary cells (Gl7), sample 06411ra, 72 h, read-out: IC50
  IC50: 3.78 µM
PCa Primary cells (Gl7); PCa primary cells (Gl7), sample 06611lb, 72 h, read-out: IC50
  IC50: 13.1 µM
PCa Primary cells (Gl7); PCa primary cells (Gl7), sample 06711rb, 72 h, read-out: IC50
  IC50: 8.24 µM
PCa Primary cells (Gl7); PCa primary cells (Gl7), sample 07011la, 72 h, read-out: IC50
  IC50: 5.36 µM
PCa Primary cells (Gl7); PCa primary cells (Gl7), sample 07011lb, 72 h, read-out: IC50
  IC50: 6.03 µM
PCa Primary cells (Gl7); PCa primary cells (Gl7), sample 07311ra, 72 h, read-out: IC50
  IC50: 5.37 µM
PCa Primary cells (Gl7); PCa primary cells (Gl7), sample 22412, 72 h, read-out: IC50
  IC50: 6.3 µM
PCa Primary cells (Gl7); average of PCa primary cells (Gl7; Gleason 6/7), 72 h, read-out: IC50 AVERAGE
  IC50: 7.16 µM
PCa Primary cells (Gl7); malignant samples, both at 25 µM, 72 h, median values
  reduction of cell viability compared to etoposide: 10.66 fold
[1]; PCa primary cells (Gl8/9), sample 14912, 72 h, read-out: IC50
  IC50: 64.1 µM
[1]; PCa primary cells (Gl8/9), sample 16312, 72 h, read-out: IC50
  IC50: 70.4 µM
[1]; PCa primary cells (Gl8/9), sample 22912, 72 h, read-out: IC50
  IC50: 46.7 µM
[1]; average of PCa primary cells (Gl8/9), 72 h, read-out: IC50 AVERAGE
  IC50: 60.4 µM
[2]
  growth inhibition of all cell lines: almost completely
Cleaved caspase-3; BPH-1, PNT2-C2 and P4E6 cells
  cleaved caspase-3 (apoptosis): clear induction of cleaved caspase-3
Cleaved caspase-3; LNCaP cells
  cleaved caspase-3 (apoptosis): only observed after treatment with 25 µM Pd complex
Cleaved caspase-3; PC3 cells
  cleaved caspase-3 (apoptosis): no evidence of cleaved caspase-3
LC3-II; BPH-1, PNT2-C2 and P4E6 cells
  LC3-II expression (autophagy): clear increase in the expression of LC3-II
LC3-II; LNCaP and PC3 cells, any treatment
  levels of LC3-I and LC3-II: did not change dramatically or in a dose-dependent fashion
